Article PMC2363545 (British Journal of Cancer, 2000)
Several values for one entry are separate records, joined by “and”; a condition that tells them apart may be missing. Identical values can stand only once.

Key:
breast cancer cell lines [1] = system: breast cancer cell lines
breast cancer cell lines [2] = details: cited from earlier work
anal carcinoma = details: in vivo
[3] = in vivo
advanced breast cancer = details: in vivo
[4] = in vivo; remark: listed apart in the source
[5] = system: NQO2-transfected rodent or non-transfected human tumor cell lines
VB6 and H357 SCC cells = type: cell-based, human
[6] = system: advanced head and neck cancer; details: in vivo
[7] = system: topoisomerase II expression in NIH3T3 cells
SCLC = details: in vivo
metastatic breast cancer = details: in vivo
metastatic RCC = system: metastatic RCC; parameters: species or system human; details: in vivo, po
[8] = biological target: reduced-folate carrier (RFC) (Homo sapiens, UniProt P41440); details: read-out: Km for the RFC
Chain of reduced-folate carrier (RFC) (P41440 whole entry): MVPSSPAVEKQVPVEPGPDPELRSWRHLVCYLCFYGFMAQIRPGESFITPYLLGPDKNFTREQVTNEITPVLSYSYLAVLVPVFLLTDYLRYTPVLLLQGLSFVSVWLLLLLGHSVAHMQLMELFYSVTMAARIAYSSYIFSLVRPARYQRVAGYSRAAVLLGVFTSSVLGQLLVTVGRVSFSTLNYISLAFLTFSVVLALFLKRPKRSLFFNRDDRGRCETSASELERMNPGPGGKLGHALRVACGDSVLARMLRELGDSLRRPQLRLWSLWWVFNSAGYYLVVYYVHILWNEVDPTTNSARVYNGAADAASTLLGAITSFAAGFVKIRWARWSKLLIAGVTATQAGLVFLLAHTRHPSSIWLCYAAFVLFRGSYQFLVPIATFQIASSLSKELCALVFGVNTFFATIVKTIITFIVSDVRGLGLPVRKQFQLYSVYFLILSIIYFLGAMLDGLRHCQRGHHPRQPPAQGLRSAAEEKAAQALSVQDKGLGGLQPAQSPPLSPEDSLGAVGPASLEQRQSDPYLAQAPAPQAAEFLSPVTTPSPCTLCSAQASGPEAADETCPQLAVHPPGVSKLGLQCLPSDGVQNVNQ

DNA-topoisomerase I = DNA-topoisomerase I (Homo sapiens, UniProt P11387); type: biochemical
Chain of DNA-topoisomerase I (P11387 whole entry): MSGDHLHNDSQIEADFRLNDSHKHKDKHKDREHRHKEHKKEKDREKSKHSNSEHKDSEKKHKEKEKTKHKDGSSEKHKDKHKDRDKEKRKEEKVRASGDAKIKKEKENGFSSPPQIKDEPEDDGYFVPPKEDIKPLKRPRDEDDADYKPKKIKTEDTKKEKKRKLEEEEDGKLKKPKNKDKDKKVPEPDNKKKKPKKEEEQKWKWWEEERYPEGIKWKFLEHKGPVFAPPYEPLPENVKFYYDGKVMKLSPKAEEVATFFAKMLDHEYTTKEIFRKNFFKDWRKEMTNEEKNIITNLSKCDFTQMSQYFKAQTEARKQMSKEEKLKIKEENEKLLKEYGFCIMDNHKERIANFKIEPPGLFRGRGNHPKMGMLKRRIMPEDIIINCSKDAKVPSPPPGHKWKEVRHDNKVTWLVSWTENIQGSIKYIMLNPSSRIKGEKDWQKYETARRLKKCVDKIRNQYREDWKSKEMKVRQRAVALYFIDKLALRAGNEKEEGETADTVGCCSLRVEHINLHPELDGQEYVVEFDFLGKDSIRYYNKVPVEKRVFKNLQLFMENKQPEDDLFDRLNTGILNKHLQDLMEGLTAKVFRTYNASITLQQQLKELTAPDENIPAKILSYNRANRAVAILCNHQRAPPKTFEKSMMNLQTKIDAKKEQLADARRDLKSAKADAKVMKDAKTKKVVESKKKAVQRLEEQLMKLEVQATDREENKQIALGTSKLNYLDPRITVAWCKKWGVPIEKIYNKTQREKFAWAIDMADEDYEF

[9] = in vivo; remark: listed apart in the source
carcinoma of cervix = details: in vivo
cervix cancer = details: in vivo
[10] = system: liver metastases (murine T50/80 breast); parameters: species or system mice; details: mouse, in vivo
[11] = mouse, in vivo
[12] = in vivo; remark: listed apart in the source
[13] = in vivo; remark: listed apart in the source

With `COc1cc2c(cc1OS(N)(=O)=O)CC[C@@H]1[C@@H]2CC[C@]2(C)C(=O)CC[C@@H]12` [2-MeOEMATE, 2-Methoxyestrone-3-O-Sulfamate] as the compound, how does the “fold more potent than parent compounds” value (breast cancer cell lines [1]) read?
The value was greater than 10 fold.

And the “G2/M arrest in breast cancer cells in vitro” value (breast cancer cell lines [2])?
Its value is “induced G2/M arrest”.

What about the “effect on tubulin assembly” value (tubulin) of the same compound?
Its value is “inhibited the ability of paclitaxel to promote tubulin assembly”.

With `O=c1[nH]cc(F)c(=O)[nH]1` [5-FU] as the compound, how does the PD (anal carcinoma) read?
Its PD is 4%.

What about the PR (anal carcinoma) of the same compound?
The PR was 22%.

What about the “acute skin toxicity grade 3” value (anal carcinoma) of the same compound?
The value was 96%.

And the “clinical CR” value (anal carcinoma)?
The value was 74%.

What about the Kelim [3] of the same compound?
Its Kelim is 3.7 0.8 hr-1.

Which results are given for `CC(C)(C#N)c1cc(Cn2cncn2)cc(C(C)(C)C#N)c1` [AN]?
OR (CR+PR) (advanced breast cancer): 29%; median TTP (advanced breast cancer): 8.5 months and 10.7 months; thromboembolic events (advanced breast cancer): 4.5%; vaginal bleeding (advanced breast cancer): 1.2%

For `NC(=O)c1cc(N2CC2)c([N+](=O)[O-])cc1[N+](=O)[O-]` [CB1954, 5-(aziridin-l-yl)-2,4-dinitrobenzamide], which “drug unchanged in the urine” value [4] is on record?
The value was less than 5%.

And the median elimination half-life [4]?
The median elimination half-life was 51 min.

And the “time serum levels greater than 0.1 µM” value [4]?
The value was “more than 4 hours”.

What about the “time serum levels greater than 1 M” value [4] of the same compound?
The value was 2 h.

What about the “maximum tolerated dose (MTD)” value ([4]; iv) of the same compound?
The value was 37.5 mg/m2.

What about the “increase in CB 1954 cytotoxicity in the presence of NRH” value [5] of the same compound?
The value was 100-3000 fold.

Which “VB6 cell migration reduced to” value (VB6 and H357 SCC cells) does the source give for `COc1c(C[C@@H](C)OC(=O)Oc2ccc(O)cc2)c2c3c(C[C@@H](C)OC(=O)c4ccccc4)c(OC)c(=O)c4c(O)cc(OC)c(c5c(OC)cc(O)c(c1=O)c52)c43` [Calphostin C] here?
Its value is 7.8%.

With `C[C@]12CC[C@@H]3c4ccc(O)cc4CC[C@H]3[C@@H]1CC[C@@H]2O` [E2, Oestradiol] as the compound, how does the “induction of integrin 1 expression” value (MCF-7) read?
Its value is 1.7 fold.

And the “reduction of integrin 1 expression” value (MCF-7)?
Its value is 29%.

Which neurotoxicity [6] does the source give for `Oc1cccc(-c2c3nc(c(-c4cccc(O)c4)c4ccc([nH]4)c(-c4cccc(O)c4)c4nc(c(-c5cccc(O)c5)c5ccc2[nH]5)CC4)C=C3)c1` [Foscan] here?
The neurotoxicity was “No specific neurotoxicity”.

What about the tumour effect [6] of the same compound?
Its tumour effect is “consistent tumour necrosis”.

With `CCOc1ccc(-c2nc3ccc(-c4nc5ccc(N6CCN(C)CC6)cc5[nH]4)cc3[nH]2)cc1` [Hoechst 33342] as the compound, how does the “expression of top2 at confluence” value [7] read?
Its value is “increased expression”.

With `COc1cc2c(c(OC)c1OC)-c1ccc(O)cc1[C@@H](NC(C)=O)CC2` [N-acetylcolchinol] as the compound, how does the “concentrations at which toxicity/antiproliferative effects occur” value (HUVECs) read?
Its value is greater than 100 M.

Which neutropenic pyrexia (SCLC) does the source give for `C[C@@H](O)[C@@H]1NC(=O)[C@H](CCCCN)NC(=O)[C@@H](Cc2c[nH]c3ccccc23)NC(=O)[C@H](Cc2ccccc2)NC(=O)[C@@H](NC(=O)[C@H](N)Cc2ccccc2)CSSC[C@@H](C(=O)N[C@H](CO)[C@@H](C)O)NC1=O` [Octreotide] here?
The neutropenic pyrexia was 9 % of treatment cycles.

With `CC/C(=C(\c1ccccc1)c1ccc(OCCN(C)C)cc1)c1ccccc1` [TAM] as the compound, how does the “OR (CR+PR)” value (advanced breast cancer) read?
Its value is 27%.

And the “median TTP” value (advanced breast cancer)?
The value was 7.0 months and 6.4 months.

What about the thromboembolic events (advanced breast cancer) of the same compound?
Its thromboembolic events is 7.6%.

What about the vaginal bleeding (advanced breast cancer) of the same compound?
Its vaginal bleeding is 2.9%.

For `CC(=O)O[C@@]12CO[C@@H]1C[C@H](O)[C@@]1(C)C(=O)[C@H](O)C3=C(C)[C@@H](OC(=O)[C@H](O)[C@@H](NC(=O)OC(C)(C)C)c4ccccc4)C[C@@](O)([C@@H](OC(=O)c4ccccc4)[C@H]21)C3(C)C` [TAX], which median survival (metastatic breast cancer) is on record?
Its median survival is 204 days.

What about the “patients requiring admission due to neutropenic sepsis” value (metastatic breast cancer) of the same compound?
Its value is 40%.

What about the patients showing response (metastatic breast cancer) of the same compound?
The patients showing response was 53%.

Which response rate (metastatic RCC) does the source give for `O=C1CCC(N2C(=O)c3ccccc3C2=O)C(=O)N1` (stereo not shown) [Thalidomide] here?
The response rate was 10%.

Which Km [8] does the source give for `C#CCN(Cc1cc2c(=O)[nH]c(C)nc2cc1C)c1ccc(C(=O)N[C@@H](CCc2nnn[nH]2)C(=O)O)c(F)c1` [ZD9331] here?
The Km was 1000 to 2000 nM.

For `CC[C@@]1(O)C(=O)OCc2c1cc1n(c2=O)Cc2cc3ccccc3nc2-1` [camptothecin], which “nicked DNA / cleavage” value (DNA-topoisomerase I) is on record?
Its value is 90%.

Which hypomagnesaemia [9] does the source give for `N.N.[Cl][Pt][Cl]` [cisplatin] here?
The hypomagnesaemia was 14 % of all chemotherapy cycles.

And the general malaise (carcinoma of cervix)?
Its general malaise is 56%.

What about the “grade 3 or severe (grade 4) neutropaenia” value (cervix cancer) of the same compound?
The value was 27%.

What about the “some degree of neutropaenia” value (cervix cancer) of the same compound?
Its value is 70 % of patients.

And the thrombocytopaenia (cervix cancer)?
The thrombocytopaenia was 12%.

For `COc1ccc(/C=C\c2cc(OC)c(OC)c(OC)c2)cc1O` [combretastatin A4], which “average decrease in tumour volume” value [10] is on record?
The value was 30%.

For `COc1cc(/C=C/C(=O)CC(=O)/C=C/c2ccc(O)c(OC)c2)ccc1O` [curcumin, diferuloylmethane], which metabolism (hepatocytes) is on record?
Its metabolism is “metabolised to THC, HHC and HHCO”.

For `Cn1cnc2c(NCc3ccccc3)nc(NCCO)nc21` [olomoucine], which “correlation of PK parameters, combination vs alone (spearman r)” value [11] is on record?
The value was 0.90.

Which “cross-resistance of HCT116/8FP cells” value (colorectal cell lines) does the source give for `CC[C@H](CO)Nc1nc(NCc2ccccc2)c2ncn(C(C)C)c2n1` [roscovitine] here?
The value was “no cross-resistance”.

And the “correlation of PK parameters, combination vs alone (spearman r)” value [11]?
Its value is 0.99.

And the “ranking of AUC and clearance” value [11]?
Its value is “highest AUC and the lowest clearance”.

With `O=P(O)(O)C(O)(Cn1ccnc1)P(=O)(O)O` [zoledronate] as the compound, how does the “proportion of apoptotic cells” value (MCF7 cells) read?
The value was “significant increase”.

For carboplatin, which “Grade 1 reaction” value [12] is on record?
The value was 45 % of patients.

And the “HSR on rechallenge with a platinum compound” value [12]?
Its value is 66%.

What about the “grade II reaction” value [12] of the same compound?
The value was 25 % of patients.

And the “grade III reaction” value [12]?
Its value is 30 % of patients.

And the “incidence of HSR” value [12]?
The value was 10.5%.

And the “mean duration of HSR” value [12]?
The value was 44 min.

What about the “mean time interval between initial exposure and HSR” value [12] of the same compound?
The value was 26.5 months.

And the “mean time of onset of symptoms” value [12]?
Its value is 14.5 min.

What about the “overall incidence of HSR” value [12] of the same compound?
Its value is 4.5%.

What about the “AUC achieved, mean standard deviation” value [13] of the same compound?
The value was 11420 % of target.
